How the values were obtained:
[1] = test system: DSS-induced colitis in Balb/c mice; experiment: DSS-induced colitis in Balb/c mice (Example 7); type: in vivo; conditions: s.c. b.i.d., GL1001 300 mg/kg, sulfasalazine 150 mg/kg
Procedure: A study was designed with six groups of Balb/c mice: naïve control, DSS followed by vehicle, DSS followed by GL1001 30 mg/kg/day, DSS followed by GL1001 100 mg/kg/day, DSS followed by GL1001 300 mg/kg/day, and DSS followed by sulfasalazine 150 mg/kg/day. Administration of DSS was via drinking water, from day 1 to day 6 of the study. […] Administration of vehicle, GL1001 and sulfasalazine was subcutaneous, twice daily, from day 6 until termination of the study (day 16).
Body weight of each animal was measured at days 1, 3 and 5 (pre-initiation of GL1001 or sulfasalazine treatment) and at days 7, 9, 11 and 13 (post-initiation of GL1001 or sulfasalazine treatment). On these same days, disease activity measurements were recorded, including: • (a) rectal prolapse (0=no prolapse, 1=partial prolapse, 2=moderate prolapse, 3=full prolapse); • (b) stool consistency (0=solid pellet, 1=semi-solid, 2=soft stool, 3=diarrhea); and • (c) fecal occult blood (0=no blood present, 1=occult blood, 2=gross blood).
At termination of the study, colon length was determined and histological analysis was conducted as in Example 6.

[2] = test system: NF-κB; conditions: in CD; Guidi et al. (2005); cited from earlier work
[3] = test system: CD; conditions: cited from earlier work
[4] = test system: UC; conditions: cited from earlier work

Compound | fecal occult blood ([1]; day 7) | stool consistency ([1]; day 7) | percentage weight loss ([1]; day 9) | rectal prolapse ([1]; day 9) | distal colon crypt score [1] | distal colon inflammation score [1] | distal colon total histopathology score [1] | reduction in colon length [1] | NF-κB activity [2] | induction of remission rate ([3]; CD, after a single dose) | response rate ([3]; CD, after a single dose) | fistula responds (closes), patients ([3]; fistulizing CD) | patients who develop an abscess ([3]; in vivo) | response rates [4]
O=C(O)c1cc(/N=N/c2ccc(S(=O)(=O)Nc3ccccn3)cc2)ccc1O [sulfasalazine, reference compound] | reduces | No significant effect | No significant effect | reduces | reduces | reduces | reduces | inhibits reduction | – | – | – | – | – | –
Infliximab: anti-TNFα monoclonal antibody | – | – | – | – | – | – | – | – | decrease | 50% | 80% | 68% | 12% | 50-70%
